Legend:
[1] = molecular target: soluble guanylate cyclase (sGC) (Rattus norvegicus (Rat), UniProt P20595); test: Stimulation of sGC enzyme activity (PPi detection, luciferase); format: biochemical; details: sGC enzyme in vitro; for EC50: read-out: EC50 (concentration at 50% of maximum efficacy), activating action at the sGC enzyme
Description: Soluble guanylate cyclase (sGC) converts on stimulation GTP into cGMP and pyrophosphate (PPi). PPi is detected with the aid of the assay described below. The signal produced in the assay increases as the reaction progresses and serves as a measure of the sGC enzyme activity under the given stimulation.
To carry out the assay, 29 μl of enzyme solution [0-10 nM soluble guanylate cyclase (prepared according to Hönicka et al, J. Mol. Med. 77, 14-23 (1999)) in 50 mM TEA, 2 mM MgC2, 0.1% BSA (fraction V), 0.005% Brij®, pH 7.5] are initially introduced into a microplate, and 1 μl of the substance to be tested (as a serially diluted solution in DMSO) is added. The mixture is incubated at room temperature for 10 min. Then 20 μl of detection mix [1.2 nM Firefly Luciferase (Photinus pyralis luciferase, Promega), 29 μM dehydroluciferin (prepared according to Bitler & McElroy, Arch. Biochem. Biophys. 72, 358 (1957)), 122 μM luciferin (Promega), 153 μM ATP (Sigma) and 0.4 mM DTT (Sigma) in 50 mM TEA, 2 mM MgCl2, 0.1% BSA (fraction V), 0.005% Brij®, pH 7.5] are added. The enzyme reaction is started by adding 20 μl of substrate solution [1.25 mM guanosine 5′-triphosphate (Sigma) in 50 mM TEA, 2 mM MgC2, 0.1% BSA (fraction V), 0.005% Brij®, pH 7.5] and measured continuously in a luminometer. The extent of the stimulation by the substance to be tested can be determined relative to the signal of the unstimulated reaction.
The activation of haem-free guanylate cyclase is examined by addition of 25 μM of 1H-1,2,4-oxadiazolo[4,3-a]quinoxalin-1-one (ODQ) to the enzyme solution and subsequent incubation for 30 minutes and compared to the stimulation of the native enzyme.

saphenous artery rings = test: Vasorelaxant effect in vitro (phenylephrine-contracted saphenous artery rings); format: cell-based; details: Oryctolagus cuniculus; rabbit saphenous artery rings, phenylephrine-induced contraction
Description: Rabbits are anaesthetized and sacrificed by intravenous injection of thiopental sodium (about 50 mg/kg) and exsanguinated. The saphenous artery is removed and divided into rings 3 mm wide. The rings are mounted singly on in each case a pair of triangular hooks open at the end and made of 0.3 mm-thick special wire (Remanium®). Each ring is placed under an initial tension in 5 ml organ baths with Krebs-Henseleit solution which is at 37° C., is gassed with carbogen and has the following composition: NaCl 119 mM; KCl 4.8 mM; CaCl2×2 H2O 1 mM; MgSO4×7 H2O 1.4 mM; KH2PO4 1.2 mM; NaHCO3 25 mM; glucose 10 mM; bovine serum albumin 0.001%. The force of contraction is detected with Statham UC2 cells, amplified and digitized via A/D converters (DAS-1802 HC, Keithley Instruments, Munich) and recorded in parallel on chart recorders. Contractions are induced by addition of phenylephrine.
After several (generally 4) control cycles, the substance to be investigated is added in each further run in increasing dosage, and the level of the contraction achieved under the influence of the test substance is compared with the level of the contraction reached in the last preceding run. The concentration necessary to reduce the contraction reached in the preceding control by 50% is calculated from this (IC50). The standard application volume is 5 μl. The proportion of DMSO in the bath solution corresponds to 0.1%.

[2] = tested on: recombinant guanylate cyclase reporter cell line (CHO reporter cell); test: Action at a recombinant guanylate cyclase reporter cell line; format: cell-based; details: CHO reporter cell in vitro; read-out: MEC (minimum effective concentration), sGC-activating activity in the CHO reporter cell
Description: The cellular action of the compounds according to the invention is determined at a recombinant guanylate cyclase reporter cell line, as described in F. Wunder et al., Anal. Biochem. 339, 104-112 (2005).

Sequence of soluble guanylate cyclase (sGC) (P20595 whole entry): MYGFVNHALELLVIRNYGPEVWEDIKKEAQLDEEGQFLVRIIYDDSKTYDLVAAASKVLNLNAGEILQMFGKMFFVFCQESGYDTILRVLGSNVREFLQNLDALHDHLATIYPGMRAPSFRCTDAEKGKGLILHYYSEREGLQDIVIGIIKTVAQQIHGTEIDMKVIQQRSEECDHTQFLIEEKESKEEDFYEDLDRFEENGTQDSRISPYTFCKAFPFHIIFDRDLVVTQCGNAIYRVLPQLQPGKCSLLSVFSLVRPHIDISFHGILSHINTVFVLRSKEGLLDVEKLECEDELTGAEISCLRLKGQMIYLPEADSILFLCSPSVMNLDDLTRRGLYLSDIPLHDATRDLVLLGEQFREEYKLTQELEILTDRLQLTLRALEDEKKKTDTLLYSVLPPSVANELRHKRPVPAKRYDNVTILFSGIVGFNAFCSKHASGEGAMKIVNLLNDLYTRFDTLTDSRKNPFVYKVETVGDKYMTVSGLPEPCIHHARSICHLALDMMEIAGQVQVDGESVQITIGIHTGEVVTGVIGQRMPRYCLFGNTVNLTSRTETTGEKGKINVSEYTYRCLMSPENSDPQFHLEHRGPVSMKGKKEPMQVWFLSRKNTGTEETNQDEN
Sequence of soluble guanylate cyclase (sGC) (P19686 whole entry partner): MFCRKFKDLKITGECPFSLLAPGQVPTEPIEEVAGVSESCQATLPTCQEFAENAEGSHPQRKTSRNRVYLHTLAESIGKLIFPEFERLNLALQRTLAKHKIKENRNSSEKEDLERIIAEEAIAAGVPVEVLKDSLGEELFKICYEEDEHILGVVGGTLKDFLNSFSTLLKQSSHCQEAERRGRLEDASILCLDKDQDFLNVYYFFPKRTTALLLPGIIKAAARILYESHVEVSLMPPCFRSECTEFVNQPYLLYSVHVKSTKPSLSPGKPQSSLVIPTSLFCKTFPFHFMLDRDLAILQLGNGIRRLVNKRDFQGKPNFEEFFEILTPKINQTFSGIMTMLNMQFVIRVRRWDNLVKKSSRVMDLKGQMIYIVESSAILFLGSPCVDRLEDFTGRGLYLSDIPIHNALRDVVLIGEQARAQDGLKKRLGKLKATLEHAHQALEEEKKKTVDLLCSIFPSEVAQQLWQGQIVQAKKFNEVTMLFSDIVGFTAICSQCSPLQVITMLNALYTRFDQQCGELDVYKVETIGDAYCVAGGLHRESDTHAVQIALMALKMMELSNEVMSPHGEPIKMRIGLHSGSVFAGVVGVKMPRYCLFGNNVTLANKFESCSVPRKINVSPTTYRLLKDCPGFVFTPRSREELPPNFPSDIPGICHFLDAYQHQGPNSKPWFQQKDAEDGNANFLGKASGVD

MEC (minimum effective concentration), activating action at the sGC enzyme [1] [nM]	EC50 [1] [nM]	IC50 (saphenous artery rings) [nM]	Compound	minimal effective concentration [2] [µM]
1	37	801	CC(C)C(C)(CC(=O)O)c1ccc(Cl)c(NC(=O)[C@H](c2ccc(Cl)cc2)[C@@H](C)C(F)(F)F)c1 (single isomer, unassigned) [Example 3]	0.0003
2.4	110	–	CC(C)C(C)(CC(=O)O)c1ccc(Cl)c(NC(=O)[C@H](c2ccc(Cl)cc2)[C@@H](C)C(F)(F)F)c1 (single isomer, unassigned) [Example 4]	0.003
0.3	5.2	–	C[C@H]([C@H](C(=O)Nc1cc(C(C)(CC(=O)O)C2CCC2)ccc1Cl)c1ccc(Cl)cc1)C(F)(F)F (single isomer, unassigned) [Example 5]	0.0003
1.1	56	–	C[C@H]([C@H](C(=O)Nc1cc(C(C)(CC(=O)O)C2CCC2)ccc1Cl)c1ccc(Cl)cc1)C(F)(F)F (single isomer, unassigned) [Example 6]	0.001
–	–	–	C[C@H]([C@H](C(=O)Nc1cc(C(CC(=O)O)C2(C)CC2)ccc1Cl)c1ccc(Cl)cc1)C(F)(F)F (single isomer, unassigned) [Example 26]	0.01
1	11	–	C[C@H]([C@H](C(=O)Nc1cc(C(CC(=O)O)CC2CC2)ccc1Cl)c1ccc(Cl)cc1)C(F)(F)F (single isomer, unassigned) [Example 35]	0.0003
–	–	–	C[C@H]([C@H](C(=O)Nc1cc(C(CC(=O)O)CC2CC2)ccc1Cl)c1ccc(Cl)cc1)C(F)(F)F (single isomer, unassigned) [Example 36]	0.003
1	22	–	CC(C)C(CC(=O)O)c1ccc(Cl)c(NC(=O)[C@H](c2ccc(Cl)cc2)[C@@H](C)C(F)(F)F)c1 (single isomer, unassigned; (+)) [Example 1]	0.003
4	89	–	CC(C)C(CC(=O)O)c1ccc(Cl)c(NC(=O)[C@H](c2ccc(Cl)cc2)[C@@H](C)C(F)(F)F)c1 (single isomer, unassigned; (+)) [Example 2]	0.0065
0.4	11	–	C[C@H]([C@H](C(=O)Nc1cc(C(CC(=O)O)C2CCC2)ccc1Cl)c1ccc(Cl)cc1)C(F)(F)F (single isomer, unassigned; (+)) [Example 33]	0.001
–	–	–	C[C@H]([C@H](C(=O)Nc1cc(C(CC(=O)O)C2CCC2)ccc1Cl)c1ccc(Cl)cc1)C(F)(F)F (single isomer, unassigned; (+)) [Example 34]	0.01
–	–	–	C[C@H]([C@H](C(=O)Nc1cc(C(C)(CC(=O)O)C2CC2)ccc1Cl)c1ccc(Cl)cc1)C(F)(F)F (stereo partly drawn) [Example 7]	0.3
–	–	–	CCc1ccc([C@@H](C(=O)Nc2cc(C(CC(=O)O)C(C)C)ccc2Cl)[C@@H](C)C(F)(F)F)cc1 (stereo partly drawn) [Example 8]	0.001
–	–	–	CC(C)C(CC(=O)O)c1ccc(Cl)c(NC(=O)[C@H](c2ccc(Cl)c(F)c2)[C@@H](C)C(F)(F)F)c1 (stereo partly drawn) [Example 9]	0.001
0.5	10	131	CC(C)c1ccc([C@@H](C(=O)Nc2cc(C(CC(=O)O)C(C)C)ccc2Cl)[C@@H](C)C(F)(F)F)cc1 (stereo partly drawn) [Example 10]	0.0003
–	–	–	CC(C)C(CC(=O)O)c1ccc(Cl)c(NC(=O)[C@H](c2ccc(F)cc2)[C@@H](C)C(F)(F)F)c1 (stereo partly drawn) [Example 11]	0.003

MEC (minimum effective concentration), activating action at the sGC enzyme [1] [nM]	EC50 [1] [nM]	IC50 (saphenous artery rings) [nM]	Compound	minimal effective concentration [2] [µM]
1.1	17	–	CC(C)C(CC(=O)O)c1ccc(Cl)c(NC(=O)C(c2ccc(CC(F)(F)F)cc2)C(C)C(F)(F)F)c1 (stereo not drawn) [Example 12]	0.001
0.5	14	–	CC(C)C(CC(=O)O)c1ccc(Cl)c(NC(=O)[C@H](c2ccc(C3CC3(F)F)cc2)[C@@H](C)C(F)(F)F)c1 (stereo partly drawn) [Example 13]	0.0003
0.5	8.4	269	CC(C)C(CC(=O)O)c1ccc(Cl)c(NC(=O)[C@H](c2ccc(C(C)(C)C)cc2)[C@@H](C)C(F)(F)F)c1 (stereo partly drawn) [Example 14]	0.0003
–	–	–	COc1cc([C@@H](C(=O)Nc2cc(C(CC(=O)O)C(C)C)ccc2Cl)[C@@H](C)C(F)(F)F)ccc1Cl (stereo partly drawn) [Example 15]	0.003
–	–	767	Cc1ccc([C@@H](C(=O)Nc2cc(C(CC(=O)O)C(C)C)ccc2Cl)[C@@H](C)C(F)(F)F)cc1 (stereo partly drawn) [Example 16]	0.003
–	–	–	Cc1cc([C@@H](C(=O)Nc2cc(C(CC(=O)O)C(C)C)ccc2Cl)[C@@H](C)C(F)(F)F)ccc1Cl (stereo partly drawn) [Example 17]	0.001
–	–	–	CC(C)C(CC(=O)O)c1ccc(Cl)c(NC(=O)C(c2ccc(Cl)cc2)C2CCC(F)(F)C2)c1 (stereo not drawn) [Example 18]	0.3
–	–	–	CC(C)C(CC(=O)O)c1ccc(Cl)c(NC(=O)C(c2ccc(Cl)cc2)C2CCC(F)(F)C2)c1 (stereo not drawn) [Example 19]	0.03
–	–	–	CC(C)C(CC(=O)O)c1ccc(Cl)c(NC(=O)C(c2ccc(Cl)cc2)C2CCC(F)(F)C2)c1 (stereo not drawn) [Example 20]	1
–	–	–	CC(C)C(CC(=O)O)c1ccc(Cl)c(NC(=O)C(c2ccc(Cl)cc2)C2CCC(F)(F)C2)c1 (stereo not drawn) [Example 21]	0.01
–	–	–	C[C@H]([C@H](C(=O)Nc1cc(C(CC(=O)O)C2CC2)ccc1Cl)c1ccc(Cl)cc1)C(F)(F)F (stereo partly drawn) [Example 23]	0.003
5.1	220	–	COC(C)(C)C(CC(=O)O)c1ccc(Cl)c(NC(=O)[C@H](c2ccc(Cl)cc2)[C@@H](C)C(F)(F)F)c1 (stereo partly drawn) [Example 25]	0.01
1.7	68	–	C[C@H]([C@H](C(=O)Nc1cc(C(CC(=O)O)C2(F)CC2)ccc1Cl)c1ccc(Cl)cc1)C(F)(F)F (stereo partly drawn) [Example 27]	0.003
–	–	–	C[C@H]([C@H](C(=O)Nc1cc(C(CC(=O)O)C2CC(F)(F)C2)ccc1Cl)c1ccc(Cl)cc1)C(F)(F)F (stereo partly drawn) [Example 28]	0.03
1.7	640	–	CC(C(=O)O)C(c1ccc(Cl)c(NC(=O)C(c2ccc(Cl)cc2)[C@@H](C)C(F)(F)F)c1)C1CC1 (stereo partly drawn) [Example 30]	0.01
–	–	–	C[C@H](C(C(=O)Nc1cc(C(CC(=O)O)C2CC2(F)F)ccc1Cl)c1ccc(Cl)cc1)C(F)(F)F (stereo partly drawn) [Example 31, 3-(4-Chloro-3-{[(3R)-2-(4-chlorophenyl)-4,4,4-trifluoro-3-methylbutanoyl]amino}phenyl)-3-(2,2-difluorocyclopropyl)propanoic acid]	0.003
